Reference: ChEMBL document CHEMBL3885861, “Open TG-GATES”

Organism: Rattus norvegicus
Assay: Open TG-GATES - Regimen: Daily Repeat
Assay type: toxicity, organism-based, Sprague-Dawley
Parameters: regimen Daily Repeat, gender Male, age 6 weeks
Details: in vivo, po, 1000 mg/kg, route gavage, dose level High; for APTT / Bas / Eos / Fbg / Hb / Ht / Lym / MCH / MCHC / MCV / Mono / Neu / PT / Plat / RBC / Ret / WBC: tissue Blood; for KIDNEY_L / KIDNEY_R / KIDNEY_TOTAL: tissue Kidney; for LIVER: tissue Liver; for A/G / ALP / ALT / AST / BUN / CRE / Ca / Cl / DBIL / GLC / IP / K / LDH / Na / PL / RALB / TBIL / TC / TG / TP / gamma-GTP: tissue Plasma

CCN1CCCC1CNC(=O)c1cc(S(N)(=O)=O)ccc1OC (configuration not stated) [SULPIRIDE] showed a TERMINAL_BW (72 h, time 3 day) of 230.5 g, an APTT (72 h, time 3 day) of 16.8 s and a Bas (72 h, time 3 day) of 0%. For the same compound, the Eos (72 h, time 3 day) was 1.4%, the Fbg (72 h, time 3 day) was 274.2 mg/dL and the Hb (72 h, time 3 day) was 14.1 g/dL. It also gave a Ht (72 h, time 3 day) of 42.6%, a Lym (72 h, time 3 day) of 74.8% and an MCH (72 h, time 3 day) of 20.7 pg. It also gave an MCHC (72 h, time 3 day) of 33.1%, an MCV (72 h, time 3 day) of 62.5 fL and a Mono (72 h, time 3 day) of 2.8%. For the same compound, the Neu (72 h, time 3 day) was 20.6%, the PT (72 h, time 3 day) was 13.2 s and the Plat (72 h, time 3 day) was 128.6 x10_4/uL. For the same compound, the RBC (72 h, time 3 day) was 682.6 x10_4/ul, the Ret (72 h, time 3 day) was 4.8% and the WBC (72 h, time 3 day) was 104.1 x10_2/uL. The KIDNEY_L (72 h, time 3 day) was 1 g, the KIDNEY_R (72 h, time 3 day) was 1 g and the KIDNEY_TOTAL (72 h, time 3 day) was 2 g. It also gave an LIVER (72 h, time 3 day) of 11.1 g, an A/G (72 h, time 3 day) of 0.8 and an ALP (72 h, time 3 day) of 1652 IU/L. The ALT (72 h, time 3 day) was 49.2 IU/L, the AST (72 h, time 3 day) was 62.4 IU/L and the BUN (72 h, time 3 day) was 16.4 mg/dL. The CRE (72 h, time 3 day) was 0.2 mg/dL, the Ca (72 h, time 3 day) was 11.3 mg/dL and the Cl (72 h, time 3 day) was 103.4 meq/L. The DBIL (72 h, time 3 day) was 0.01 mg/dL, the GLC (72 h, time 3 day) was 174.6 mg/dL and the IP (72 h, time 3 day) was 8.3 mg/dL. For the same compound, the K (72 h, time 3 day) was 4.5 meq/L, the LDH (72 h, time 3 day) was 73.8 IU/L and the Na (72 h, time 3 day) was 140 meq/L. For the same compound, the PL (72 h, time 3 day) was 161 mg/dL, the RALB (72 h, time 3 day) was 2.7 g/dL and the TBIL (72 h, time 3 day) was 0.056 mg/dL. It also gave a TC (72 h, time 3 day) of 82.2 mg/dL, a TG (72 h, time 3 day) of 112 mg/dL and a TP (72 h, time 3 day) of 5.7 g/dL. The gamma-GTP (72 h, time 3 day) was 1 IU/L, the TERMINAL_BW ([…], time 7 day) was 262.7 g and the TERMINAL_BW ([…], time 14 day) was 307.6 g. For the same compound, the TERMINAL_BW ([…], time 28 day) was 370.8 g, the APTT ([…], time 7 day) was 17.8 s and the Bas ([…], time 7 day) was 0%. For the same compound, the Eos ([…], time 7 day) was 1.2%, the Fbg ([…], time 7 day) was 288 mg/dL and the Hb ([…], time 7 day) was 14 g/dL. For the same compound, the Ht ([…], time 7 day) was 42.2%, the Lym ([…], time 7 day) was 76.6% and the MCH ([…], time 7 day) was 20.8 pg. The MCHC ([…], time 7 day) was 33.3%, the MCV ([…], time 7 day) was 62.6 fL and the Mono ([…], time 7 day) was 3.2%. For the same compound, the Neu ([…], time 7 day) was 18.6%, the PT ([…], time 7 day) was 13.3 s and the Plat ([…], time 7 day) was 125.3 x10_4/uL. The RBC ([…], time 7 day) was 673.8 x10_4/ul, the Ret ([…], time 7 day) was 4.7% and the WBC ([…], time 7 day) was 87.1 x10_2/uL. For the same compound, the APTT ([…], time 14 day) was 16.8 s, the Bas ([…], time 14 day) was 0.2% and the Eos ([…], time 14 day) was 1%. It also gave a Fbg ([…], time 14 day) of 271 mg/dL, a Hb ([…], time 14 day) of 14.9 g/dL and a Ht ([…], time 14 day) of 44.3%. For the same compound, the Lym ([…], time 14 day) was 72.8%, the MCH ([…], time 14 day) was 20.1 pg and the MCHC ([…], time 14 day) was 33.6%. The MCV ([…], time 14 day) was 59.8 fL, the Mono ([…], time 14 day) was 2.2% and the Neu ([…], time 14 day) was 23%. The PT ([…], time 14 day) was 13.2 s, the Plat ([…], time 14 day) was 114.6 x10_4/uL and the RBC ([…], time 14 day) was 742 x10_4/ul. The Ret ([…], time 14 day) was 3.8%, the WBC ([…], time 14 day) was 103.9 x10_2/uL and the APTT ([…], time 28 day) was 17.8 s. For the same compound, the Bas ([…], time 28 day) was 0%, the Eos ([…], time 28 day) was 1.6% and the Fbg ([…], time 28 day) was 278.4 mg/dL. For the same compound, the Hb ([…], time 28 day) was 15.8 g/dL, the Ht ([…], time 28 day) was 45.5% and the Lym ([…], time 28 day) was 80%. It also gave an MCH ([…], time 28 day) of 19.3 pg, an MCHC ([…], time 28 day) of 34.7% and an MCV ([…], time 28 day) of 55.5 fL. It also gave a Mono ([…], time 28 day) of 2%, a Neu ([…], time 28 day) of 15% and a PT ([…], time 28 day) of 13.3 s. It also gave a Plat ([…], time 28 day) of 111.2 x10_4/uL, an RBC ([…], time 28 day) of 818.8 x10_4/ul and a Ret ([…], time 28 day) of 2.5%. For the same compound, the WBC ([…], time 28 day) was 133.5 x10_2/uL, the KIDNEY_L ([…], time 7 day) was 1.1 g and the KIDNEY_R ([…], time 7 day) was 1.2 g. The KIDNEY_TOTAL ([…], time 7 day) was 2.3 g, the KIDNEY_L ([…], time 14 day) was 1.2 g and the KIDNEY_R ([…], time 14 day) was 1.2 g. For the same compound, the KIDNEY_TOTAL ([…], time 14 day) was 2.3 g, the KIDNEY_L ([…], time 28 day) was 1.2 g and the KIDNEY_R ([…], time 28 day) was 1.3 g. It also gave a KIDNEY_TOTAL ([…], time 28 day) of 2.5 g, an LIVER ([…], time 7 day) of 11.9 g and an LIVER ([…], time 14 day) of 12.6 g. The LIVER ([…], time 28 day) was 13.4 g, the A/G ([…], time 7 day) was 0.9 and the ALP ([…], time 7 day) was 1461.2 IU/L. For the same compound, the ALT ([…], time 7 day) was 55 IU/L, the AST ([…], time 7 day) was 74.2 IU/L and the BUN ([…], time 7 day) was 16.4 mg/dL. The CRE ([…], time 7 day) was 0.2 mg/dL, the Ca ([…], time 7 day) was 11 mg/dL and the Cl ([…], time 7 day) was 103.2 meq/L. The DBIL ([…], time 7 day) was 0.006 mg/dL, the GLC ([…], time 7 day) was 171.6 mg/dL and the IP ([…], time 7 day) was 8 mg/dL. For the same compound, the K ([…], time 7 day) was 4.3 meq/L, the LDH ([…], time 7 day) was 62 IU/L and the Na ([…], time 7 day) was 141 meq/L. For the same compound, the PL ([…], time 7 day) was 146 mg/dL, the RALB ([…], time 7 day) was 2.7 g/dL and the TBIL ([…], time 7 day) was 0.05 mg/dL. The TC ([…], time 7 day) was 72.6 mg/dL, the TG ([…], time 7 day) was 94 mg/dL and the TP ([…], time 7 day) was 5.7 g/dL. The gamma-GTP ([…], time 7 day) was 1 IU/L, the A/G ([…], time 14 day) was 0.9 and the ALP ([…], time 14 day) was 1425.6 IU/L. For the same compound, the ALT ([…], time 14 day) was 41.8 IU/L, the AST ([…], time 14 day) was 68.2 IU/L and the BUN ([…], time 14 day) was 16.8 mg/dL. It also gave a CRE ([…], time 14 day) of 0.2 mg/dL, a Ca ([…], time 14 day) of 11 mg/dL and a Cl ([…], time 14 day) of 102.6 meq/L. It also gave a DBIL ([…], time 14 day) of 0.008 mg/dL, a GLC ([…], time 14 day) of 181 mg/dL and an IP ([…], time 14 day) of 7.9 mg/dL. The K ([…], time 14 day) was 3.9 meq/L, the LDH ([…], time 14 day) was 54 IU/L and the Na ([…], time 14 day) was 140.6 meq/L. The PL ([…], time 14 day) was 148.4 mg/dL, the RALB ([…], time 14 day) was 2.7 g/dL and the TBIL ([…], time 14 day) was 0.056 mg/dL. The TC ([…], time 14 day) was 80.8 mg/dL, the TG ([…], time 14 day) was 83.4 mg/dL and the TP ([…], time 14 day) was 5.9 g/dL. For the same compound, the gamma-GTP ([…], time 14 day) was 1 IU/L, the A/G ([…], time 28 day) was 0.8 and the ALP ([…], time 28 day) was 1094.8 IU/L. It also gave an ALT ([…], time 28 day) of 42.6 IU/L, an AST ([…], time 28 day) of 70.4 IU/L and a BUN ([…], time 28 day) of 18 mg/dL. The CRE ([…], time 28 day) was 0.3 mg/dL, the Ca ([…], time 28 day) was 10.6 mg/dL and the Cl ([…], time 28 day) was 103 meq/L. For the same compound, the DBIL ([…], time 28 day) was 0.012 mg/dL, the GLC ([…], time 28 day) was 169 mg/dL and the IP ([…], time 28 day) was 7.2 mg/dL. It also gave a K ([…], time 28 day) of 3.9 meq/L, an LDH ([…], time 28 day) of 55.6 IU/L and a Na ([…], time 28 day) of 141.8 meq/L. For the same compound, the PL ([…], time 28 day) was 136.2 mg/dL, the RALB ([…], time 28 day) was 2.8 g/dL and the TBIL ([…], time 28 day) was 0.062 mg/dL. The TC ([…], time 28 day) was 66.2 mg/dL, the TG ([…], time 28 day) was 87.2 mg/dL and the TP ([…], time 28 day) was 6.3 g/dL. For the same compound, the gamma-GTP ([…], time 28 day) was 1 IU/L.
